Experimental data published in patent US7816522B2, “Triazolone derivatives” (Eisai Co., Ltd., priority 2006, dated 2010).
Where a name gives a salt, the structure may show the parent alone.

Target: T1, human clotting factor VIIa (Homo sapiens, UniProt P08709)
T1 construct: a human clotting factor VIIa (hereinafter, “Factor VIIa”) purified sample; purchased Enzyme Research Laboratories HFVIIa
Assay: Inhibitory activity against clotting factor VIIa (chromogenic substrate Spectrozyme FVIIa, TF/Factor VIIa enzyme solution)
Assay type: biochemical
Settings: human Factor VIIa 5 nmol/L with human TF 10 nmol/L, room temperature 40 minutes, 405 nm
Experimental: [Inhibitory Activity Against Clotting Factor VIIa]
Dimethylsulfoxide (DMSO) solutions were prepared with compounds of the invention at concentration of 10 mmol/L (10 mmol/L compound solutions).
One packet of tris-hydroxymethylaminomethane-preset (hereinafter referred to as “Tris preset”) (Product of Sigma Corp., Catalog No. T8293), 8.8 g of sodium chloride (NaCl) and 1 g of bovine serum albumin (hereinafter abbreviated as “BSA”) were dissolved in 1 L of water to prepare a Tris-BSA buffer (100 mmol/L Tris, 0.15 mol/L NaCl, 0.1% BSA, pH 7.4).
This Tris-BSA buffer (180 μL) was added to the aforementioned 10 mmol/L compound solution (20 μL). A 10-fold dilution series was prepared for this mixture using the aforementioned Tris-BSA buffer, and solutions with the compound at concentrations of 1.0 mmol/L, 100, 10, 1, 0.1, 0.01 and 0.001 μmol/L were prepared (1.0 mmol-0.001 μmol/L compound solutions). As a control, a solution was prepared by 10-fold dilution of DMSO with the Tris-BSA buffer (hereinafter referred to as “control 10% solution”).
After dissolving one packet of Tris preset, NaCl (8.8 g) and BSA (1 g) in water (about 900 mL), there were added 1 mol/L aqueous calcium chloride (CaCl2) (15 mL) and 1 mg/mL aqueous cephalin (30 mL), and the total volume was brought to 1 L by adding water. To this solution there was added a human tissue factor (hereinafter, “TF”) sample (product of Calbiochem, Catalog No. 612151) (450 μg) to a TF sample concentration of 10 nmol/L, and then a human clotting factor VIIa (hereinafter, “Factor VIIa”) purified sample (product of Enzyme Research Laboratories, Catalog No. HFVIIa) (250 μg) was added to a Factor VIIa purified sample concentration of 5 nmol/L, to prepare an enzyme solution (100 mmol/L Tris-HCl, 0.15 mol/L NaCl, 15 mmol/L CaCl2, 30 μg/mL cephalin, 1 mg/mL BSA, 10 nmol/L TF, 5 nmol/L Factor VIIa).
To 110 μL of this enzyme solution there was added 15 μL of each of the 1.0 mmol-0.001 μmol/L compound solutions, and then 25 μL of a 1.0 mmol/L synthetic chromogenic substrate solution (Spectrozyme FVIIa, product of American Diagnostica, Catalog No. 217L) was added and the mixture was allowed to stand at room temperature for 40 minutes. Next, the amount of 4-nitroanilide released into the solution was quantitated by spectrophotometry (405 nm).
A control measurement was conducted in the same manner, using the control 10% solution instead of the compound solution.
This measurement yielded the enzyme reaction inhibition in the presence of 100 μmol/L to 0.1 nmol/L of each compound of the invention.
The enzyme reaction inhibition at each compound concentration was subjected to non-linear regression analysis, and the IC50 value for inhibitory activity of each compound against clotting factor VIIa was calculated.

T1 sequence (P08709 213-466 limits assumed): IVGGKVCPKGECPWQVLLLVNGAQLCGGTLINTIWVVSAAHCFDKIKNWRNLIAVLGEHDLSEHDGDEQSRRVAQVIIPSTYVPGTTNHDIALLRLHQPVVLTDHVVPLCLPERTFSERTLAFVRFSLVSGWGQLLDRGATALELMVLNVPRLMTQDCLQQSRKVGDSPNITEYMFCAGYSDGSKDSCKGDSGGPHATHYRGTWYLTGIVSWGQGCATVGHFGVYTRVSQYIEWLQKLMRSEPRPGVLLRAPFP
T1 sequence (P08709 61-212 limits assumed): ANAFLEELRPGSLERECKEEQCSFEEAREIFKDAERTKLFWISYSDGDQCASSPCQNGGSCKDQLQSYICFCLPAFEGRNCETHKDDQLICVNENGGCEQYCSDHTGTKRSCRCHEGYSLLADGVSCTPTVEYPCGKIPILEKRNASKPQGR
T1 sequence (P13726 33-295 partner): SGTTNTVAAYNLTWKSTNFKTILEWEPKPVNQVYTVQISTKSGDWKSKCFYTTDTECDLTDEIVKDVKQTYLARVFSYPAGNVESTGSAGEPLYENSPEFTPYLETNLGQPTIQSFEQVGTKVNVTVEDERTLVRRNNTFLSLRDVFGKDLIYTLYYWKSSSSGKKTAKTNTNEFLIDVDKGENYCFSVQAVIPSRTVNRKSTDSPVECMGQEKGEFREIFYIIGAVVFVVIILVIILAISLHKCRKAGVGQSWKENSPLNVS

| IC50 [nM] | Structure (SMILES) |
| --- | --- |
| 74.5 | COc1cc(F)c(C(Nc2ccc(C(=N)N)cc2)c2nn(-c3[nH]ncc3C(=O)O)c(=O)[nH]2)cc1OC (racemic) [Example 194, (R) and (S)-5-{3-[(4-Carbamimidoylphenylamino)-(2-fluoro-4,5-dimethoxyphenyl)methyl]-5-oxo-4,5-dihydro-[1,2,4]triazol-1-yl}-1H-pyrazole-4-carboxylic acid acetate] |
| 5.1 | COc1cc(OCCCO)c(F)c(C(Nc2ccc(C(=N)N)cc2)c2nn(-c3ncccn3)c(=O)[nH]2)c1 (racemic) [Example 229, (R) and (S)-4-{[[2-Fluoro-3-(3-hydroxypropoxy)-5-methoxyphenyl]-(5-oxo-1-pyrimidin-2-yl-4,5-dihydro-1H-[1,2,4]triazol-3-yl)methyl]amino}benzamidine acetate] |
| 7.3 | C=CCOc1cc(C(Nc2ccc(C(=N)N)cc2)c2nn(-c3ncccn3)c(=O)[nH]2)ccc1OC (racemic) [Example 118, (R) and (S)-4-{[(3-allyloxy-4-methoxyphenyl)-(5-oxo-1-pyrimidin-2-yl-4,5-dihydro-1H-[1,2,4]triazol-3-yl)methyl]amino}benzamidine acetate] |
| 4.9 | COc1cc(C(Nc2ccc(C(=N)N)cc2)c2nn(-c3ccsc3C(=O)O)c(=O)[nH]2)cc(OCCO)c1OC (racemic) [Example 230, (R) and (S)-3-(3-{(4-Carbamimidoylphenylamino)-[3-(2-hydroxyethoxy)-4,5-dimethoxyphenyl]methyl}-5-oxo-4,5-dihydro-[1,2,4]triazol-1-yl)thiophene-2-carboxylic acid] |
| 4.7 | CCc1cc(OCC(C)(C)CN(C)C)c(F)c(C(Nc2ccc(C(=N)N)cc2)c2nn(-c3ccccc3C(=O)O)c(=O)[nH]2)c1 (centres unmarked) [Example 142, 2-(3{(4-carbamimidoyl-phenylamino)-[3-(3-dimethylamino-2,2-dimethylpropoxy)-5-ethyl-2-fluorophenyl]methyl}-5-oxo-4,5-dihydro-1H-[1,2,4]triazol-1-yl}benzoic acid bistrifluoroacetate] |
| 6.7 | COc1cc(C(Nc2ccc(C(=N)N)cc2)c2nn(-c3ncccn3)c(=O)[nH]2)c(F)c2c1OCCC2 (racemic) [Example 33, (R) and (S)-4-{[(5-fluoro-8-methoxychroman-6-yl)-(5-oxo-1-pyrimidin-2-yl-4,5-dihydro-1H-[1,2,4]triazol-3-yl)methyl]amino}benzamidine acetate] |
| 6.8 | CCOc1cc(OCCF)cc(C(Nc2ccc(C(=N)N)cc2)c2nn(-c3cccnn3)c(=O)[nH]2)c1 (racemic) [Example 80, (R) and (S)-4-({[3-ethoxy-5-(2-fluoroethoxy)phenyl]-(5-oxo-1-pyridazin-3-yl-4,5-dihydro-1H-[1,2,4]triazol-3-yl)methyl}amino)benzamidine acetate] |
| 23.8 | COc1cc(C(Nc2ccc(C(=N)N)cc2)c2nn(-c3ncsc3C(=O)O)c(=O)[nH]2)cc(OCCO)c1OC (racemic) [Example 233, (R) and (S)-4-(3-{(4-Carbamimidoylphenylamino)-[3-(2-hydroxyethoxy)-4,5-dimethoxyphenyl]methyl}-5-oxo-4,5-dihydro-[1,2,4]triazol-1-yl)thiazole-5-carboxylic acid] |
| 11.5 | CCOc1cc(C(Nc2ccc(C(=N)N)cc2)c2nn(-c3ncccn3)c(=O)[nH]2)c(F)cc1OC (racemic) [Example 115, (R) and (S)-4-{[(5-ethoxy-2-fluoro-4-methoxyphenyl)-(5-oxo-1-pyrimidin-2-yl-4,5-dihydro-1H-[1,2,4]triazol-3-yl)methyl]amino}benzamidine acetate] |
| 6.4 | COc1ccccc1-n1nc(C(Nc2ccc(C(=N)N)cc2)c2cc(C)cc(OCCF)c2F)[nH]c1=O (centres unmarked) [Example 91, 4-({[2-fluoro-3-(2-fluoroethoxy)-5-methylphenyl]-[1-(2-methoxyphenyl)-5-oxo-4,5-dihydro-1H-[1,2,4]triazol-3-yl]methyl}amino)benzamidine trifluoroacetate] |
| 24.4 | COc1cc(OCC(=O)N(C)C)cc(C(Nc2ccc(C(=N)N)cc2)c2nn(-c3ncccn3)c(=O)[nH]2)c1 (racemic) [Example 62, (R) and (S)-2-{3-[(4-carbamimidoylphenylamino)-(5-oxo-1-pyrimidin-2-yl-4,5-dihydro-1H-[1,2,4]triazol-3-yl)methyl]-5-methoxyphenoxy}-N,N-dimethylacetamide acetate] |
| 11.2 | COCc1cc(OC)cc(C(Nc2ccc(C(=N)N)cc2)c2nn(-c3cccnn3)c(=O)[nH]2)c1 (racemic) [Example 73, (R) and (S)-4-{[(3-methoxy-5-methoxymethylphenyl)-(5-oxo-1-pyridazin-3-yl-4,5-dihydro-1H-[1,2,4]triazol-3-yl)methyl]amino}benzamidine trifluoroacetate] |
| 1.8 | COc1cc(OCCF)c(F)c(C(Nc2ccc(C(=N)N)cc2)c2nn(-c3cccc(N)n3)c(=O)[nH]2)c1 (racemic) [Example 174, (R) and (S)-4-({[1-(6-aminopyridin-2-yl)-5-oxo-4,5-dihydro-1H-[1,2,4]triazol-3-yl]-[2-fluoro-3-(2-fluoroethoxy)-5-methoxyphenyl]methyl}amino)benzamidine acetate] |
| 15.1 | CCOc1cc(OC)c(F)c(C(Nc2ccc(C(=N)N)cc2)c2nn(-c3ncccn3)c(=O)[nH]2)c1 (racemic) [Example 69, (R) and (S)-4-{[(5-ethoxy-2-fluoro-3-methoxyphenyl)-(5-oxo-1-pyrimidin-2-yl-4,5-dihydro-1H-[1,2,4]triazol-3-yl)methyl]amino}benzamidine acetate] |
| 2.3 | COc1ccc(C(Nc2ccc(C(=N)N)cc2)c2nn(-c3ccsc3C(=O)O)c(=O)[nH]2)cc1OC (racemic) [Example 155, (R) and (S)-3-{3-[(4-carbamimidoylphenylamino)-(3,4-dimethoxyphenyl)methyl]-5-oxo-4,5-dihydro[1,2,4]triazol-1-yl}thiophene-2-carboxylic acid acetate] |
| 7.4 | COc1cc(C(Nc2ccc(C(=N)N)cc2)c2nn(-c3ncccn3)c(=O)[nH]2)cc2c1OCCC2 (racemic) [Example 24, (R) and (S)-4-{[(8-methoxychroman-6-yl)-(5-oxo-1-pyrimidin-2-yl-4,5-dihydro-1H-[1,2,4]triazol-3-yl)methyl]amino}benzamidine acetate] |
| 3.2 | COc1cc(C(Nc2ccc(C(=N)N)cc2)c2nn(-c3ccsc3C(=O)O)c(=O)[nH]2)cc2c1OCOC2 (racemic) [Example 226, 3-{3-[(R) and (S)-(4-Carbamimidoylphenylamino)-(8-methoxy-4H-benzo[1,3]dioxin-6-yl)methyl]-5-oxo-4,5-dihydro-[1,2,4]triazol-1-yl}thiophene-2-carboxylic acid] |
| 11.1 | COc1cc(OCCO)c(F)c(C(Nc2ccc(C(=N)N)cc2)c2nn(-c3ncsc3C(=O)O)c(=O)[nH]2)c1 (racemic) [Example 167, (R) and (S)-4-(3-{(4-carbamimidoylphenylamino)-[2-fluoro-3-(2-hydroxyethoxy)-5-methoxyphenyl]methyl}-5-oxo-4,5-dihydro[1,2,4]triazol-1-yl)thiazole-5-carboxylic acid] |
| 1.3 | C=Cc1cc(O[C@H]2CCOC2)cc(C(Nc2ccc(C(=N)N)cc2)c2nn(-c3ncccn3)c(=O)[nH]2)c1 (mixture of isomers) [Example 45(1), 4-[((R) and (S)-(5-oxo-1-pyrimidin-2-yl-4,5-dihydro-1H-[1,2,4]triazol-3-yl)-{3-[(S)-(tetrahydrofuran-3-yl)oxy]-5-vinylphenyl}methyl)amino]benzamidine acetate] |
| 85.6 | COc1cc(C(Nc2ccc(C(=N)N)cc2)c2nn(-c3ncccn3)c(=O)[nH]2)c(F)cc1OCCO (racemic) [Example 208, 4-{[(R) and (S)-[2-Fluoro-4-(2-hydroxyethoxy)-5-methoxyphenyl]-(5-oxo-1-pyrimidin-2-yl-4,5-dihydro-1H-[1,2,4]triazol-3-yl)methyl]amino}benzamidine acetate] |
